Experiments:
HepG2 = experiment: In vitro cell proliferation assay (MTT); format: cell-based; details: Homo sapiens, HepG2, 72 h
Method in brief: (§1)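 Cells were seeded at 5×10^3 per well and exposed in duplicate to escalating compound concentrations from 10 nM to 3 μM for 72 hr. Proliferation was then measured by MTT reduction.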

HUVEC = experiment: In vitro cell proliferation assay (MTT); format: cell-based; details: Homo sapiens, 72 h
Method: Cancer cell lines (5×10^3 cells per well) or HUVEC (1×10^4 cells per well) or HRMEC (1×10^4 cells per well) were distributed in 96-well plates and incubating in duplicate with escalating concentrations (10 nM to 3 μM) of compounds for 72 hr. Cell proliferation was measured using MTT (3 [4,5-dimethylthiazol-2-yl]-2,5-diphenyltetrazolium bromide).

H1975 = experiment: In vitro cell proliferation assay (MTT); format: cell-based; details: Homo sapiens, NCI-H1975, 72 h
Method in brief: as §1

HeLa = experiment: In vitro cell proliferation assay (MTT); format: cell-based; details: Homo sapiens, 72 h
Method in brief: as §1

HuH7 = experiment: In vitro cell proliferation assay (MTT); format: cell-based; details: Homo sapiens, Huh-7, 72 h
Method in brief: as §1

HuH6 Clone 5 = experiment: In vitro cell proliferation assay (MTT); format: cell-based; details: HUH-6-clone5, 72 h
Method in brief: as §1

HuCCT1 = experiment: In vitro cell proliferation assay (MTT); format: cell-based; details: Homo sapiens, HuCCT-1, 72 h
Method in brief: as §1

MDA-MB-231 = experiment: In vitro cell proliferation assay (MTT); format: cell-based; details: Homo sapiens, MDA-MB-231, 72 h
Method in brief: as §1

HRMEC = experiment: In vitro cell proliferation assay (MTT); format: cell-based; details: 72 h
Method in brief: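 Seed 5×10^3 cells per well. Add compound at rising doses (10 nM to 3 μM), run in duplicate. Incubate 72 hr, then quantify growth with MTT.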

HT29 = experiment: In vitro cell proliferation assay (MTT); format: cell-based; details: Homo sapiens, HT-29, 72 h
Method in brief: as §1

A549 = experiment: In vitro cell proliferation assay (MTT); format: cell-based; details: Homo sapiens, A549, 72 h
Method in brief: as §1

BRAF = molecular target: T1, BRAF (Homo sapiens, UniProt P15056); experiment: In vitro kinase assay (Z′-LYTE); format: biochemical; details: compound 100 nM; ATP 100 μM; read-out: % of inhibition of the kinase compared to the control
T1 construct: purchased Invitrogen
Method in brief: (§2)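 Z′-LYTE FRET peptide-cleavage assay, emission ratio after 400 nm excitation; compound tested at 100 nM in 1% DMSO final. Kinase buffer 50 mM HEPES pH 7.5, 0.01% BRIJ-35, 10 mM MgCl2, 1 mM EGTA, ATP at previously determined apparent Km; read as percent inhibition.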

EGFR (ErbB1) = molecular target: T2, EGFR (ErbB1) (Homo sapiens, UniProt P00533); experiment: In vitro kinase assay (Z′-LYTE); format: biochemical; details: read-out: % of inhibition of the kinase compared to the control
T2 construct: purchased Invitrogen
Method in brief: as §2

KDR (VEGFR2) = molecular target: T3, KDR (VEGFR2) (Homo sapiens, UniProt P35968); experiment: In vitro kinase assay (Z′-LYTE); format: biochemical; details: read-out: % of inhibition of the kinase compared to the control
T3 construct: purchased Invitrogen
Method in brief: as §2

SRC = molecular target: T4, SRC (Homo sapiens, UniProt P12931); experiment: In vitro kinase assay (Z′-LYTE); format: biochemical; details: read-out: % of inhibition of the kinase compared to the control
T4 construct: purchased Invitrogen
Method in brief: as §2

EGFR (ErbB1) T790M L858R = molecular target: T5, EGFR (ErbB1) T790M L858R (Homo sapiens, UniProt P00533, L858R/T790M); experiment: In vitro kinase assay (Z′-LYTE); format: biochemical; details: read-out: % of inhibition of the kinase compared to the control
T5 construct: purchased Invitrogen
Method in brief: as §2

FGFR2 = molecular target: T6, FGFR2 (Homo sapiens, UniProt P21802); experiment: In vitro kinase assay (Z′-LYTE); format: biochemical; details: read-out: % of inhibition of the kinase compared to the control
T6 construct: purchased Invitrogen
Method in brief: as §2

PDGFRA (PDGFR alpha) = molecular target: T7, PDGFRA (PDGFR alpha) (Homo sapiens, UniProt P16234); experiment: In vitro kinase assay (Z′-LYTE); format: biochemical; details: read-out: % of inhibition of the kinase compared to the control
T7 construct: purchased Invitrogen
Method in brief: as §2

BxPC-3 = experiment: In vitro cell proliferation assay (MTT); format: cell-based; details: Homo sapiens, BXPC-3, 72 h
Method in brief: as §1

PDGFRB = molecular target: T8, PDGFRB (Homo sapiens, UniProt P09619); experiment: In vitro kinase assay (Z′-LYTE); format: biochemical; details: read-out: % of inhibition of the kinase compared to the control
T8 construct: purchased Invitrogen
Method in brief: as §2

ABL T315I = molecular target: T9, ABL T315I (Homo sapiens, UniProt P00519, T315I); experiment: In vitro kinase assay (Z′-LYTE); format: biochemical; details: read-out: % of inhibition of the kinase compared to the control
T9 construct: purchased Invitrogen
Method in brief: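 Read-out is a ratiometric FRET signal (donor/acceptor emission, 400 nm excitation) from a doubly labelled peptide, whose cleavage by a development protease depends on its phosphorylation state. ATP used at apparent Km in HEPES pH 7.5 buffer with MgCl2; compounds at 100 nM, or 10 μM for ABL T315I.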

FGFR1 = molecular target: T10, FGFR1 (Homo sapiens, UniProt P11362); experiment: In vitro kinase assay (Z′-LYTE); format: biochemical; details: read-out: % of inhibition of the kinase compared to the control
T10 construct: purchased Invitrogen
Method in brief: as §2

VEGFR1 = molecular target: T11, VEGFR1 (Homo sapiens, UniProt P17948); experiment: In vitro kinase assay (Z′-LYTE); format: biochemical; details: read-out: % of inhibition of the kinase compared to the control
T11 construct: purchased Invitrogen
Method in brief: as §2

ABL = molecular target: T12, ABL (Homo sapiens, UniProt P00519); experiment: In vitro kinase assay (Z′-LYTE); format: biochemical; details: read-out: % of inhibition of the kinase compared to the control
T12 construct: purchased Invitrogen

PC-3 = experiment: In vitro cell proliferation assay (MTT); format: cell-based; details: Homo sapiens, PC-3, 72 h
Method in brief: as §1

Caki-2 = experiment: In vitro cell proliferation assay (MTT); format: cell-based; details: Homo sapiens, CAKI-2, 72 h
Method in brief: as §1

T5 sequence (P00533 25-1210 T790M/L858R): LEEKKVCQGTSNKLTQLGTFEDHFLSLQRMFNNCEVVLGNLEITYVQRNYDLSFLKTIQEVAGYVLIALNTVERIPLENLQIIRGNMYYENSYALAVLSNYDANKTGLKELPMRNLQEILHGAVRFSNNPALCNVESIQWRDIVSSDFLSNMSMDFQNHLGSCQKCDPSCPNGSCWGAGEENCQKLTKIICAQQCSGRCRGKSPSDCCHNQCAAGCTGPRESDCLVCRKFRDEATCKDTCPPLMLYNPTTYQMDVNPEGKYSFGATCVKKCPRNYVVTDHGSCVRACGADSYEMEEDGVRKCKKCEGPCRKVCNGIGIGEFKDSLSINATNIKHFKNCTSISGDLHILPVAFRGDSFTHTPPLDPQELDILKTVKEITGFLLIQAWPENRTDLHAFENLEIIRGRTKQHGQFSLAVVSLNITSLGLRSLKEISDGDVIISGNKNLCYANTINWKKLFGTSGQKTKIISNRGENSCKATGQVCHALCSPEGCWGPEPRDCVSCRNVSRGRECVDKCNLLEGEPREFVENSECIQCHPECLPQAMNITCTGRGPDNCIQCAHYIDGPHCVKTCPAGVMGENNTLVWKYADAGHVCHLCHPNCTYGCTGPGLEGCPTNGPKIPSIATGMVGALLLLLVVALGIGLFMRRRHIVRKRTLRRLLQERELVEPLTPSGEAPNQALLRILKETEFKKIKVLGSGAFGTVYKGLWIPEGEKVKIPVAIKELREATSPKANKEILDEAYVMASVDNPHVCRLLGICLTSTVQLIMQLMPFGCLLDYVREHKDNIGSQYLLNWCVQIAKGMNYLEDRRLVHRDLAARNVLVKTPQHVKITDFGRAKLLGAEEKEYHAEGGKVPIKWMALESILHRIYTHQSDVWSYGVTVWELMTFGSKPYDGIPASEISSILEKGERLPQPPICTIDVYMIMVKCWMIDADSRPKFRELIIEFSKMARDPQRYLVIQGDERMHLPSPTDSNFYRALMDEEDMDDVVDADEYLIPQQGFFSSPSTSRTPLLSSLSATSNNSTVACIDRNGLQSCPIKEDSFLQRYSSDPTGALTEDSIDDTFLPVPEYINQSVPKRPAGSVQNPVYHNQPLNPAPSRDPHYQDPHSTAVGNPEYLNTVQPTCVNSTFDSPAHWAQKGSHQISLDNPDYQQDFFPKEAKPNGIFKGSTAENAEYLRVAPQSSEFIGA
T11 sequence (P17948 27-1338): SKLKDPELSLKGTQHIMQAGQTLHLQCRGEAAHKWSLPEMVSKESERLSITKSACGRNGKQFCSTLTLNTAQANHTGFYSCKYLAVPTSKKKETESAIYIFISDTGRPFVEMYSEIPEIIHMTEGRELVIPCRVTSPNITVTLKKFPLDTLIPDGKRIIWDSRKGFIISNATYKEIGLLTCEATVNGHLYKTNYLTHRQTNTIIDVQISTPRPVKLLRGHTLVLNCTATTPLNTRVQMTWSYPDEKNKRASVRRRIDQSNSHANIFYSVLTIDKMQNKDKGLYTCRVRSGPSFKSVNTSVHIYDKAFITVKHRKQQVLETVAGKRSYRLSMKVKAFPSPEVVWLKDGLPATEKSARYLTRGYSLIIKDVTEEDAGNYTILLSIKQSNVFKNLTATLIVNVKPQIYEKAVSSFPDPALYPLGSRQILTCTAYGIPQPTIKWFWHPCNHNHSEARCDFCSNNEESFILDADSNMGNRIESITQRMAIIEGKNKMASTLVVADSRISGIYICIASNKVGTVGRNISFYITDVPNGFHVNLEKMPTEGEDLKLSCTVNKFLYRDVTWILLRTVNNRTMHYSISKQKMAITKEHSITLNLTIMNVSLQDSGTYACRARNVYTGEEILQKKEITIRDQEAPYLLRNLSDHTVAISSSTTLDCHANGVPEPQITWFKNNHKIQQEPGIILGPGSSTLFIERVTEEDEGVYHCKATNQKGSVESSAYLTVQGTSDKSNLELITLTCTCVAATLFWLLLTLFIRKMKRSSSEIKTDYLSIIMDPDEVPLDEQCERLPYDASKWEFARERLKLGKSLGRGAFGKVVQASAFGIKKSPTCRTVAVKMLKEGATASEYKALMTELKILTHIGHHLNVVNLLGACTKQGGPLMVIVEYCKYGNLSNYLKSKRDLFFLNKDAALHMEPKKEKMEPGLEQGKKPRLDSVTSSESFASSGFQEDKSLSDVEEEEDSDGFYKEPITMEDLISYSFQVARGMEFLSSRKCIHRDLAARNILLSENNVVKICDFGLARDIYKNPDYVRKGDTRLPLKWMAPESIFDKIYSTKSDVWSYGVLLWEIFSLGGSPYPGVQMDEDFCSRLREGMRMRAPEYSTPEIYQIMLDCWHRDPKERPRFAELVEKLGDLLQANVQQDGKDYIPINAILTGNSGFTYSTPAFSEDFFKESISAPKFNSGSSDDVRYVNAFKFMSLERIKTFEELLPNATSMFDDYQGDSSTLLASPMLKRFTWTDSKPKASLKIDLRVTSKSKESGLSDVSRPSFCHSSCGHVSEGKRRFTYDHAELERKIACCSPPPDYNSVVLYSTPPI
T2 sequence (P00533 25-1210): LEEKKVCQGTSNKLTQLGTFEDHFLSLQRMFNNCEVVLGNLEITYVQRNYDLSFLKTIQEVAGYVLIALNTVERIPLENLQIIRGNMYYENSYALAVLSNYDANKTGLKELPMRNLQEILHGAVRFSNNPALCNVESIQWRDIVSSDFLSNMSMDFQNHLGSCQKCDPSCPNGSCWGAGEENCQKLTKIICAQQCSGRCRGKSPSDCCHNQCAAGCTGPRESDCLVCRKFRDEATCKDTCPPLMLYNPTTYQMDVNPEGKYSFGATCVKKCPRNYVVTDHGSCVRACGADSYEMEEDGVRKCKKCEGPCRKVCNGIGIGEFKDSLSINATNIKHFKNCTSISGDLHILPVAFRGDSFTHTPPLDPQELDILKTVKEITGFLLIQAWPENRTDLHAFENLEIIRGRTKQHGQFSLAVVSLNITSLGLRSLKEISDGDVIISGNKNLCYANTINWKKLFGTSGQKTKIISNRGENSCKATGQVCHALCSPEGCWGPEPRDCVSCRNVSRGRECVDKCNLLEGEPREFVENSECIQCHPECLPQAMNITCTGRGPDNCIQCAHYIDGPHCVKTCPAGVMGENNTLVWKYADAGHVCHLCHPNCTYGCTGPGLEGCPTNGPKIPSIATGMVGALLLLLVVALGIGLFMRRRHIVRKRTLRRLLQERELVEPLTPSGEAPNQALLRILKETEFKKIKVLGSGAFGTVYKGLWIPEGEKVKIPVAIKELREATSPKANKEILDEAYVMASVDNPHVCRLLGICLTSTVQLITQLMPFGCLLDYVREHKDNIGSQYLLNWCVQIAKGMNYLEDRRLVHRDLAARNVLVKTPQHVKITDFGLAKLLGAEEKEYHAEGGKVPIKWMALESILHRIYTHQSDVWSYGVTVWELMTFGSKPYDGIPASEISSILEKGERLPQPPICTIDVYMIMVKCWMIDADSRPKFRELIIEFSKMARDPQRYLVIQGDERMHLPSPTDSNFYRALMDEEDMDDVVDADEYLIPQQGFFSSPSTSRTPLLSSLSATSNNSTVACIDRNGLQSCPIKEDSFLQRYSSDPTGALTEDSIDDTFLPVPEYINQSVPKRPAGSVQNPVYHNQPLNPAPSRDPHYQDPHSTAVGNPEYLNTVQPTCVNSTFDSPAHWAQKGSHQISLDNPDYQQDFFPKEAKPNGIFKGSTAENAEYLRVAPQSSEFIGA
T8 sequence (P09619 33-1106): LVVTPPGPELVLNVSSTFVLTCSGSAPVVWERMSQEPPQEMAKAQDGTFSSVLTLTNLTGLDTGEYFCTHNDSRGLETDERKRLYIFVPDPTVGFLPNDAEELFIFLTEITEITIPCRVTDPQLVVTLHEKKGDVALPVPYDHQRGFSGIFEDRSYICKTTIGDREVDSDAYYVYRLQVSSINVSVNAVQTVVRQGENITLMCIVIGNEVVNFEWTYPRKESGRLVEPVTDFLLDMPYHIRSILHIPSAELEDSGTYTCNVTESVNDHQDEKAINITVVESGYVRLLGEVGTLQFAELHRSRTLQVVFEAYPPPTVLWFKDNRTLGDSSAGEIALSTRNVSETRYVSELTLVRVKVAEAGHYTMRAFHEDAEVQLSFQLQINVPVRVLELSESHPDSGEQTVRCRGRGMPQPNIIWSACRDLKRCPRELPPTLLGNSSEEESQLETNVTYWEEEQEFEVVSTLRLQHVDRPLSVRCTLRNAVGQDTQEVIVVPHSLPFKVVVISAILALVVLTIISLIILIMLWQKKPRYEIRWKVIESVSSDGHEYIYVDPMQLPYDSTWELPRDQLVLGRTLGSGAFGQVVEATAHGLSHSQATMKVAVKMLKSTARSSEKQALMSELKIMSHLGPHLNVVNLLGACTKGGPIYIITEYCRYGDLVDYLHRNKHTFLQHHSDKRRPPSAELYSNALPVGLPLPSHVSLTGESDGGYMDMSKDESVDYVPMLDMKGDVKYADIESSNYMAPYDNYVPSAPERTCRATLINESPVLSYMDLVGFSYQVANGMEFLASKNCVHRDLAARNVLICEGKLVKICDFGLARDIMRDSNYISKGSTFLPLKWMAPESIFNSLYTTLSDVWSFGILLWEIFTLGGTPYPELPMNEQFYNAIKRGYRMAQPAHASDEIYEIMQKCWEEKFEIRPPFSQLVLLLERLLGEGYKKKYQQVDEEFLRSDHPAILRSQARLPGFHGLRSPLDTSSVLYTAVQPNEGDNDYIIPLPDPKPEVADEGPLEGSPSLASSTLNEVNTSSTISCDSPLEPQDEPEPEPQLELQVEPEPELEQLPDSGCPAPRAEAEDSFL

| Structure (SMILES) | EC50 (HepG2) [nM] | EC50 (HUVEC) [nM] | EC50 (H1975) [nM] | EC50 (HuH7) [nM] | EC50 (HuH6 Clone 5) [nM] | EC50 (HuCCT1) [nM] | EC50 (MDA-MB-231) [nM] | EC50 (HT29) [nM] | EC50 (A549) [nM] | inhibition at 0.1 µM (BRAF) [%] | inhibition at 0.1 µM (EGFR (ErbB1)) [%] | inhibition at 0.1 µM (KDR (VEGFR2)) [%] | inhibition at 0.1 µM (SRC) [%] | inhibition at 0.1 µM (EGFR (ErbB1) T790M L858R) [%] | inhibition at 0.1 µM (FGFR2) [%] | inhibition at 0.1 µM (PDGFRA (PDGFR alpha)) [%] | EC50 (BxPC-3) [nM] | inhibition at 0.1 µM (PDGFRB) [%] | inhibition at 10 µM (ABL T315I) [%] | inhibition at 0.1 µM (FGFR1) [%] | other results |
| --- | --- | --- | --- | --- | --- | --- | --- | --- | --- | --- | --- | --- | --- | --- | --- | --- | --- | --- | --- | --- | --- |
| COC(=O)c1cc2cc(NC(=O)c3cc(NC(=O)c4ccc(CN5CCN(C)CC5)c(C(F)(F)F)c4)ccc3C)cnc2[nH]1 [OR0744] | 100 to 1000 | 100 to 1000 | ≥ 1000 | 100 to 1000 | ≥ 1000 | ≥ 1000 | 100 to 1000 | 100 to 1000 | 100 to 1000 | ≥ 50 | ≥ 50 | ≥ 50 | ≥ 50 | ≥ 50 | ≥ 50 | ≥ 50 |  |  |  |  | EC50 (HeLa): 100 to 1000 nM; EC50 (HRMEC): 100 to 1000 nM |
| COC(=O)c1cc2cc(NCc3cc(NC(=O)c4ccc5[nH]ccc5c4)ccc3C)cnc2[nH]1 [OR0617] | 100 to 1000 | 100 to 1000 | ≥ 1000 |  |  | ≥ 1000 |  | ≥ 1000 | ≥ 1000 | ≥ 50 | < 50 | ≥ 50 | ≥ 50 | < 50 | < 50 | ≥ 50 | ≥ 1000 | < 50 | < 50 | < 50 | EC50 (HRMEC): ≥ 1000 nM; inhibition at 0.1 µM (VEGFR1): < 50%; inhibition at 10 µM (ABL): ≥ 50% |
| COC(=O)c1cc2cc(NCc3cc(NC(=O)c4cncc(C(F)(F)F)c4)ccc3C)cnc2[nH]1 [OR0604] | ≤ 100 | 100 to 1000 | ≥ 1000 | 100 to 1000 | ≥ 1000 | ≥ 1000 | ≤ 100 | ≥ 1000 | 100 to 1000 | ≥ 50 | ≥ 50 | ≥ 50 | ≥ 50 | < 50 | < 50 | ≥ 50 | 100 to 1000 | ≥ 50 | < 50 | < 50 | EC50 (PC-3): ≥ 1000 nM; inhibition at 0.1 µM (VEGFR1): < 50%; inhibition at 10 µM (ABL): ≥ 50% |
| COC(=O)c1cc2cc(NCc3cc(NC(=O)c4ccc(CN5CCNCC5)c(C(F)(F)F)c4)ccc3C)cnc2[nH]1 [OR0613] | ≤ 100 | ≤ 100 | 100 to 1000 | 100 to 1000 | ≥ 1000 | ≥ 1000 | ≤ 100 | ≤ 100 | 100 to 1000 | ≥ 50 | ≥ 50 | ≥ 50 | ≥ 50 | ≥ 50 | ≥ 50 | ≥ 50 | 100 to 1000 | < 50 | ≥ 50 | ≥ 50 | EC50 (PC-3): ≥ 1000 nM; inhibition at 0.1 µM (VEGFR1): < 50%; inhibition at 10 µM (ABL): ≥ 50% |
| COC(=O)c1cc2cc(NCc3cc(NC(=O)c4ccc5[nH]nnc5c4)ccc3C)cnc2[nH]1 [OR0616] | ≥ 1000 | ≥ 1000 | ≥ 1000 |  |  |  |  | ≥ 1000 | ≥ 1000 | ≥ 50 | < 50 | < 50 | < 50 | < 50 | < 50 | ≥ 50 | ≥ 1000 | ≥ 50 | < 50 | < 50 | EC50 (HRMEC): ≥ 1000 nM; inhibition at 0.1 µM (VEGFR1): < 50%; inhibition at 10 µM (ABL): ≥ 50% |
| CCN(CC)CCNC(=O)c1c(C)[nH]c(/C=C2\C(=O)Nc3ccc(F)cc32)c1C [Sunitinib, reference compound] |  |  |  |  |  |  |  |  |  |  |  |  |  |  |  |  | ≥ 1000 |  |  |  | EC50 (Caki-2): ≥ 1000 nM |
| COC(=O)c1cc2cc(NCc3cc(NC(=O)c4cc(CN5CCN(C)CC5)cc(C(F)(F)F)c4)ccc3C)cnc2[nH]1 [OR0699] | 100 to 1000 | 100 to 1000 | 100 to 1000 | 100 to 1000 | ≥ 1000 | 100 to 1000 | 100 to 1000 | ≤ 100 | ≤ 100 | ≥ 50 | ≥ 50 | ≥ 50 | ≥ 50 | < 50 | < 50 | ≥ 50 | ≤ 100 |  |  |  | EC50 (HeLa): 100 to 1000 nM |
